Reference: patent publication US20250129078A1, “ERBB2 INHIBITORS” (Cogent Biosciences, Inc., priority 2023, published 2025)
Structures can show the parent of a compound that is named as a salt.

Target: EGFR WT (Homo sapiens (Human), UniProt P00533)
Assay: ErbB enzyme assay (CisBio HTRF-KinEASE-TK), EGFR WT
Type: biochemical
Settings: ATP at Km (25 μM), 1 h incubation
How it was run: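 IC50 comes from a 4-parameter fit where the curve crosses 50 percent of control, using the 655/620 nm time-resolved fluorescence ratio with DMSO-only and pre-quenched references. Kinase reactions ran 1 h at ambient temperature before Sa-XL665/cryptate-antibody detection (1 h).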

EGFR WT, sequence (P00533 25-1210): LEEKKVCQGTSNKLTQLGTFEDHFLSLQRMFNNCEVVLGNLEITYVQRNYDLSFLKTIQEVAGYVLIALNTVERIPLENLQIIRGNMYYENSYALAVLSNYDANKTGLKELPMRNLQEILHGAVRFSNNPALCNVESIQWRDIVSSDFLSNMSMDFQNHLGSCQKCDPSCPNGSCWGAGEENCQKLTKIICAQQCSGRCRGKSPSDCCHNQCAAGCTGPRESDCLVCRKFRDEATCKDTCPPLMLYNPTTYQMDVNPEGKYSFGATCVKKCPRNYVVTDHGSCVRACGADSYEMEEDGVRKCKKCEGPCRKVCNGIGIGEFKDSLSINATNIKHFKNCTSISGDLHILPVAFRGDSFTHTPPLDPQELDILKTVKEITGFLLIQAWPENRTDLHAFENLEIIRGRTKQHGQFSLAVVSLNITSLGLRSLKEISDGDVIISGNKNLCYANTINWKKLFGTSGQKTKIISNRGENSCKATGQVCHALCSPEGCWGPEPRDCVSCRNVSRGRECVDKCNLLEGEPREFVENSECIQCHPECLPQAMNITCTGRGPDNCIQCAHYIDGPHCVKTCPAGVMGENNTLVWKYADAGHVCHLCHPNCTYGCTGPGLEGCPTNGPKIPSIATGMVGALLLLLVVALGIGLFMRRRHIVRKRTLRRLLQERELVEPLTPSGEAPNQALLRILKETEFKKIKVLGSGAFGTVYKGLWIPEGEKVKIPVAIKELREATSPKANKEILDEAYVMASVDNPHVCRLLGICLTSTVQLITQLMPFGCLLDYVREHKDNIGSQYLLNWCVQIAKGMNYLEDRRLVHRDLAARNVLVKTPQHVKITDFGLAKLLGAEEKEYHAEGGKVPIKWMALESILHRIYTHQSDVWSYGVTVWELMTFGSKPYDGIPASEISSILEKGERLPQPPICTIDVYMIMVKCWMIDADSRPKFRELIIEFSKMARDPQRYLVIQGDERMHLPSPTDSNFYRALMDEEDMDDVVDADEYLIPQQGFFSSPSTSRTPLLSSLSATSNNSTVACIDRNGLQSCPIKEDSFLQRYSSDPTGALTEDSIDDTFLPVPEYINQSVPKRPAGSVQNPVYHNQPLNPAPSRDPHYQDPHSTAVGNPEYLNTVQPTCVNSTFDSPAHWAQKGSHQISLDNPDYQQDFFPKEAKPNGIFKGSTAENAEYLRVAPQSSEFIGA

SMILES | IC50 [nM]
C=CC(=O)N[C@@H]1CN(c2ncc3ncnc(Nc4ccc(Oc5ccc6c(c5)nnn6C)c(C)c4F)c3n2)CC[C@H]1C [Compound 230, N-((3S,4R)-1-(8-((2-fluoro-3-methyl-4-((1-methyl-1H-benzo[d][1,2,3]triazol-5-yl)oxy)phenyl)amino)pyrimido[5,4-d]pyrimidin-2-yl)-4-methylpiperidin-3-yl)acrylamide] | 100 to 500
Cc1cc(Nc2ncnc3cnc(N4CCN(C(=O)/C=C/C(F)F)CC4)nc23)ccc1Oc1ccc2c(c1)nnn2C [Compound 216, 4,4-difluoro-1-(4-(8-((3-methyl-4-((1-methyl-1H-benzo[d][1,2,3]triazol-5-yl)oxy)phenyl)amino)pyrimido [5,4-d]pyrimidin-2-yl)piperazin-1-yl)but-2-en-1-one] | 50 to 100
C=CC(=O)N[C@H]1CN(c2ccc3ncnc(Nc4ccc(Oc5ccc6c(c5)nnn6C)c(C)c4F)c3n2)C[C@H]1F [Compound 301, N-((3S,4R)-4-fluoro-1-(4-((2-fluoro-3-methyl-4-((1-methyl-1H-benzo[d][1,2,3]triazol-5-yl)oxy)phenyl)amino)pyrido[3,2-d]pyrimidin-6-yl)pyrrolidin-3-yl)acrylamide] | 500 to 1000
C=CC(=O)N1CCN(c2ncc3ncnc(Nc4ccc(Oc5ccc6c(c5)nnn6C)c(F)c4F)c3n2)CC1 [Compound 44, 1-(4-(8-((2,3-difluoro-4-((1-methyl-1H-benzo[d][1,2,3]triazol-5-yl)oxy)phenyl)amino)pyrimido[5,4-d]pyrimidin-2-yl)piperazin-1-yl)prop-2-en-1-one] | 50 to 100
C=CC(=O)N1C2C=C(c3ccc4ncnc(Nc5ccc(Oc6ccc7c(c6)nnn7C)c(C)c5)c4n3)CC1COC2 (centres unmarked) [Compound 408, 1-(7-(4-((3-methyl-4-((1-methyl-1H-benzo[d][1,2,3]triazol-5-yl)oxy)phenyl)amino)pyrido[3,2-d]pyrimidin-6-yl)-3-oxa-9-azabicyclo[3.3.1]non-6-en-9-yl)prop-2-en-1-one trifluoroacetate] | 100 to 500
C=CC(=O)N[C@@H]1CCN(c2ncc3ncnc(Nc4ccc(Oc5ccc6c(c5)nnn6C)c(C)c4)c3n2)C1 [Compound 153, (R)-N-(1-(8-((3-methyl-4-((1-methyl-1H-benzo[d][1,2,3]triazol-5-yl)oxy)phenyl)amino)pyrimido [5,4-d]pyrimidin-2-yl)pyrrolidin-3-yl)acrylamide] | 100 to 500
C=CC(=O)N[C@H]1CN(c2ccc3ncnc(Nc4ccc(Oc5ccc6c(c5)nnn6C)c(C)c4F)c3n2)CC[C@@H]1C [Compound 350, N-((3R,4S)-1-(4-((2-fluoro-3-methyl-4-((1-methyl-1H-benzo[d][1,2,3]triazol-5-yl)oxy)phenyl)amino)pyrido[3,2-d]pyrimidin-6-yl)-4-methylpiperidin-3-yl)acrylamide] | 100 to 500
C=CC(=O)N1CCC(Oc2ncc3ncnc(Nc4ccc(Oc5ccc6c(c5)ncn6C(F)F)c(C)c4)c3n2)CC1 [Compound 380, 1-(4-((8-((4-((1-(difluoromethyl)-1H-benzo[d]imidazol-5-yl)oxy)-3-methylphenyl)amino)pyrimido[5,4-d]pyrimidin-2-y1)oxy)piperidin-1-yl)prop-2-en-1-one] | < 50
C=C(F)C(=O)N1CCN(c2ncc3ncnc(Nc4ccc(Oc5ccc6c(c5)nnn6C)c(C)c4)c3n2)C[C@@H]1CF (single isomer, unassigned) [Compound 218] | ≥ 1000
C=CC(=O)N1CCN(c2ncc3ncnc(Nc4ccc(Oc5ccc6c(c5)nnn6C)c(C)c4F)c3n2)CC1 [Compound 7, 1-(4-(8-((2-fluoro-3-methyl-4-((1-methyl-1H-benzo[d][1,2,3]triazol-5-yl)oxy)phenyl)amino)pyrimido [5,4-d]pyrimidin-2-y1)piperazin-1-yl)prop-2-en-1-one] | < 50
C=CC(=O)NC1CC(N(C)c2ncc3ncnc(Nc4ccc(Oc5ccc6c(c5)nnn6C)c(C)c4)c3n2)C1 (centres unmarked) [Compound 142, N-(3-(methyl(8-((3-methyl-4-((1-methyl-1H-benzo[d][1,2,3]triazol-5-yl)oxy)phenyl)amino)pyrimido [5,4-d]pyrimidin-2-yl)amino)cyclobutyl)acrylamide] | 100 to 500
C=CC(=O)N[C@@H]1C[C@@H](C)CN(c2ncc3ncnc(Nc4ccc(Oc5ccc6c(c5)nnn6C)c(C)c4F)c3n2)C1 (single isomer, unassigned) [Compound 201] | ≥ 1000
C=C(F)C(=O)N1C2CCC1CN(c1ccc3ncnc(Nc4ccc(Oc5ccc6c(c5)nnn6C)c(C)c4)c3n1)C2 [Compound 87, 2-fluoro-1-(3-(4-((3-methyl-4-((1-methyl-1H-benzo[d][1,2,3]triazol-5-yl)oxy)phenyl)amino)pyrido[3,2-d]pyrimidin-6-yl)-3,8-diazabicyclo[3.2.1]octan-8-yl)prop-2-en-1-one] | 500 to 1000
C=CC(=O)N[C@H]1C[C@H](C)CN(c2ncc3ncnc(Nc4ccc(Oc5ccc6c(c5)nnn6C)c(C)c4F)c3n2)C1 (single isomer, unassigned) [Compound 202] | 500 to 1000
C=CC(=O)N[C@@H]1CN(c2ccc3ncnc(Nc4ccc(Oc5ccc6c(c5)nnn6C)c(C)c4F)c3n2)CC[C@H]1C [Compound 309, N-((3S,4R)-1-(4-((2-fluoro-3-methyl-4-((1-methyl-1H-benzo[d][1,2,3]triazol-5-yl)oxy)phenyl)amino)pyrido[3,2-d]pyrimidin-6-yl)-4-methylpiperidin-3-y1)acrylamide] | 100 to 500
C=CC(=O)N1CCN(c2ccc3ncnc(Nc4cc(F)c(Oc5ccc6c(c5)nnn6C)c(Cl)c4)c3n2)C[C@H]1C [Compound 252, (R)-1-(4-(4-((3-chloro-5-fluoro-4-((1-methyl-1H-benzo[d][1,2,3]triazol-5-yl)oxy)phenyl)amino)pyrido[3,2-d]pyrimidin-6-yl)-2-methylpiperazin-1-yl)prop-2-en-1-one] | 50 to 100
C=CC(=O)N[C@H]1CN(c2ncc3ncnc(Nc4ccc(Oc5ccc6c(c5)nnn6C)c(C)c4F)c3n2)CC[C@@H]1C [Compound 229, N-((3R,4S)-1-(8-((2-fluoro-3-methyl-4-((1-methyl-1H-benzo[d][1,2,3]triazol-5-yl)oxy)phenyl)amino)pyrimido[5,4-d]pyrimidin-2-yl)-4-methylpiperidin-3-yl)acrylamide] | 100 to 500

Next, values leading:

IC50 [nM] | SMILES
≥ 1000 | C=C(COC)C(=O)N1C2CC1CN(c1ncc3ncnc(Nc4ccc(Oc5ccc6c(c5)nnn6C)c(C)c4)c3n1)C2 [Compound 213, 2-(methoxymethyl)-1-(3-(8-((3-methyl-4-((1-methyl-1H-benzo[d][1,2,3]triazol-5-yl)oxy)phenyl)amino)pyrimido [5,4-d]pyrimidin-2-yl)-3,6-diazabicyclo[3.1.1]heptan-6-yl)prop-2-en-1-one]
50 to 100 | C=CC(=O)N1CCN(c2ccc3ncnc(Nc4cc(C)c(Oc5ccc6c(c5)nnn6C)c(F)c4)c3n2)C[C@H]1C [Compound 255, (R)-1-(4-(4-((3-fluoro-5-methyl-4-((1-methyl-1H-benzo[d][1,2,3]triazol-5-yl)oxy)phenyl)amino)pyrido[3,2-d]pyrimidin-6-yl)-2-methylpiperazin-1-yl)prop-2-en-1-one]
≥ 1000 | C=C(F)C(=O)N1CC2CCC1CN2c1ncc2ncnc(Nc3ccc(Oc4ccc5c(c4)nnn5C)c(C)c3)c2n1 (centres unmarked) [Compound 50, 2-fluoro-1-(5-(8-((3-methyl-4-((1-methyl-1H-benzo[d][1,2,3]triazol-5-yl)oxy)phenyl)amino)pyrimido[5,4-d]pyrimidin-2-yl)-2,5-diazabicyclo[2.2.2]octan-2-yl)prop-2-en-1-one]
100 to 500 | Cc1cc(Nc2ncnc3ccc(N4CCN(C(=O)/C=C/C(F)F)[C@@H](C)C4)nc23)ccc1Oc1ccc2c(c1)nnn2C [Compound 369, (S,E)-4,4-difluoro-1-(2-methyl-4-(4-((3-methyl-4-((1-methyl-1H-benzo[d][1,2,3]triazol-5-yl)oxy)phenyl)amino)pyrido[3,2-d]pyrimidin-6-yl)piperazin-1-yl)but-2-en-1-one]
< 50 | C=CC(=O)N1CCC(Oc2ncc3ncnc(Nc4ccc(Oc5cc(F)c6c(c5)ncn6C)c(C)c4)c3n2)CC1 [Compound 381, 1-(4-((8-((4-((7-fluoro-1-methyl-1H-benzo[d]imidazol-5-yl)oxy)-3-methylphenyl)amino)pyrimido[5,4-d]pyrimidin-2-yl)oxy)piperidin-1-yl)prop-2-en-1-one]
50 to 100 | C=CC(=O)N1CCN(c2ccc3ncnc(Nc4cc(C)c(Oc5ccn6ncnc6c5)cc4OC)c3n2)CC1 [Compound 371, 1-(4-(4-((4-([1,2,4]triazolo[1,5-a]pyridin-7-yloxy)-2-methoxy-5-methylphenyl)amino)pyrido[3,2-d]pyrimidin-6-yl)piperazin-1-yl)prop-2-en-1-one]
100 to 500 | C=CC(=O)N[C@H]1CCN(c2ccc3ncnc(Nc4ccc(Oc5ccc6c(c5)nnn6C)c(C)c4F)c3n2)CC1(C)C [Compound 343, (S)-N-(1-(4-((2-fluoro-3-methyl-4-((1-methyl-1H-benzo[d][1,2,3]triazol-5-yl)oxy)phenyl)amino)pyrido[3,2-d]pyrimidin-6-yl)-3,3-dimethylpiperidin-4-yl)acrylamide]
< 50 | C=CC(=O)N1CCN(c2ccc3ncnc(Nc4c(OC)cc(Oc5cc(F)c6c(c5)ncn6C)c(C)c4F)c3n2)C[C@H]1C [Compound 257, (R)-1-(4-(4-((2-fluoro-4-((7-fluoro-1-methyl-1H-benzo[d]imidazol-5-yl)oxy)-6-methoxy-3-methylphenyl)amino)pyrido[3,2-d]pyrimidin-6-yl)-2-methylpiperazin-1-yl)prop-2-en-1-one]
≥ 1000 | C=CC(=O)N1CC2(C1)CN(c1ncc3ncnc(Nc4ccc(Oc5ccc6c(c5)nnn6C)c(C)c4F)c3n1)C2 [Compound 23, 1-(6-(8-((2-fluoro-3-methyl-4-((1-methyl-1H-benzo[d][1,2,3]triazol-5-yl)oxy)phenyl)amino)pyrimido [5,4-d]pyrimidin-2-yl)-2,6-diazaspiro[3.3]heptan-2-yl)prop-2-en-1-one]
